{"source": "ChEMBL document CHEMBL1147047", "about": "“Design of protein membrane interaction inhibitors by virtual ligand screening, proof of concept with the C2 domain of factor V” (Proc Natl Acad Sci U S A, 2007)", "key": {"Coagulation factor V [1]": {"target": "T1, Coagulation factor V (Homo sapiens, UniProt P12259)", "T1 sequence (P12259 29-737 limits assumed)": "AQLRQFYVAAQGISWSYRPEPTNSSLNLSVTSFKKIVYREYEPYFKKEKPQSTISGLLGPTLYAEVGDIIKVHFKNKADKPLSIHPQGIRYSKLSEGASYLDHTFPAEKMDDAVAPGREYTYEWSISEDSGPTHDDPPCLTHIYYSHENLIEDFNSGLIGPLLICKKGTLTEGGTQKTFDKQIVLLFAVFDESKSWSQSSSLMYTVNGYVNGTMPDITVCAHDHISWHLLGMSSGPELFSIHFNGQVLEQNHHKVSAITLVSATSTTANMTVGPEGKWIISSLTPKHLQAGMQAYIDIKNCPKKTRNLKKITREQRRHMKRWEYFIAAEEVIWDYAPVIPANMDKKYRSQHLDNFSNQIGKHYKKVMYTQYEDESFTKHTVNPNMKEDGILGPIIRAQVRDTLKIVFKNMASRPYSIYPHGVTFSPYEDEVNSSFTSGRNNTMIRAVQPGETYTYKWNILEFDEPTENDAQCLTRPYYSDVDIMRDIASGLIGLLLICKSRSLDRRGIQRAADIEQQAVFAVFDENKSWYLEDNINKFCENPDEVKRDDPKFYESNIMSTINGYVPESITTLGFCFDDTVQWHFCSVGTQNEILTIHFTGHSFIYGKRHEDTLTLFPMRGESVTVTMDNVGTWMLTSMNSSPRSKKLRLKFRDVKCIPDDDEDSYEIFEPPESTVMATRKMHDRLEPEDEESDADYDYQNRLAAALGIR", "T1 sequence (P12259 1574-2224 limits assumed)": "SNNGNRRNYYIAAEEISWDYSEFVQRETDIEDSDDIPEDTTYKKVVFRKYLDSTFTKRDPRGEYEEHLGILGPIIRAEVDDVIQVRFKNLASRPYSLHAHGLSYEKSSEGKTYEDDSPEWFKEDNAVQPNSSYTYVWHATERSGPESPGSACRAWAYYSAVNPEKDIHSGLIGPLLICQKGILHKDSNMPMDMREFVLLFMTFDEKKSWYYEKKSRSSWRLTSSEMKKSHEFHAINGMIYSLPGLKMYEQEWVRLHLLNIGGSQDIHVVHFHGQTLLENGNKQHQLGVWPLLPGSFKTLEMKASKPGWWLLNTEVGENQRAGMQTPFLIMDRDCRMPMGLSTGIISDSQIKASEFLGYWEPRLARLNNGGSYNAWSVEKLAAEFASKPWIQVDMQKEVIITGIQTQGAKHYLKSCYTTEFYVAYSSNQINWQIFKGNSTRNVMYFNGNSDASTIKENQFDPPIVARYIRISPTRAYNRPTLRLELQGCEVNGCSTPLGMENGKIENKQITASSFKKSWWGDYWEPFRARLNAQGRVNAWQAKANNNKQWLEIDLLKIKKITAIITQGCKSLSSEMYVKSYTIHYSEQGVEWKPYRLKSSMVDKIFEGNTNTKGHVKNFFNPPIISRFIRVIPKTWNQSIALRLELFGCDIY", "assay": "Inhibition of factor 5a-mediated prothrombin activation in human plasma at 100 uM by prothrombinase assay"}, "[2]": {"target": "Coagulation factor X (Homo sapiens) (UniProt P00742)", "sequence (P00742 41-179 limits assumed)": "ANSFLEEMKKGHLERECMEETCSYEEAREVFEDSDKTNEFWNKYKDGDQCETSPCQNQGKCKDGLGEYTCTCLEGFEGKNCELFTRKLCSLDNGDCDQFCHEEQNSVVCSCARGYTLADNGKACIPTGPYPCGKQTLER", "sequence (P00742 235-488 limits assumed)": "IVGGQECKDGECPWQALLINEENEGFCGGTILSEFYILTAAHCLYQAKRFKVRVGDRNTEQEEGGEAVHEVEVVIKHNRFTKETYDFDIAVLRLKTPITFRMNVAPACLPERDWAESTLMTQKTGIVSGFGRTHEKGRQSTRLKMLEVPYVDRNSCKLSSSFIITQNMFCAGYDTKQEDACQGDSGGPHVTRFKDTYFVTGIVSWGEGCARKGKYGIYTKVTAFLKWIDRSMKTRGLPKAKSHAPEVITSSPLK", "assay": "Inhibition of factor 10a in human plasma", "format": "cell-free"}, "Coagulation factor V [3]": {"target": "T1, Coagulation factor V", "assay": "Inhibition of factor 5a-mediated prothrombin activation in human plasma by prothrombinase assay", "format": "cell-free"}, "[4]": {"target": "Prothrombin (Homo sapiens) (UniProt P00734)", "assay": "Inhibition of calcium-dependent membrane binding activity of prothrombin"}, "[5]": {"target": "Coagulation factor X (Homo sapiens) (UniProt P00742)", "assay": "Inhibition of calcium-dependent membrane binding activity of factor 10a"}, "Coagulation factor V [6]": {"target": "T1, Coagulation factor V", "assay": "Inhibition of human recombinant factor 5a C2 domain binding to immobilized phospholipid by surface plasmon resonance assay"}, "Coagulation factor V [7]": {"target": "T1, Coagulation factor V", "assay": "Inhibition of human factor 5a light chain binding to immobilized phospholipid by surface plasmon resonance assay"}, "Coagulation factor VIII": {"target": "Coagulation factor VIII (Homo sapiens, UniProt P00451)", "sequence (P00451 20-759 limits assumed)": "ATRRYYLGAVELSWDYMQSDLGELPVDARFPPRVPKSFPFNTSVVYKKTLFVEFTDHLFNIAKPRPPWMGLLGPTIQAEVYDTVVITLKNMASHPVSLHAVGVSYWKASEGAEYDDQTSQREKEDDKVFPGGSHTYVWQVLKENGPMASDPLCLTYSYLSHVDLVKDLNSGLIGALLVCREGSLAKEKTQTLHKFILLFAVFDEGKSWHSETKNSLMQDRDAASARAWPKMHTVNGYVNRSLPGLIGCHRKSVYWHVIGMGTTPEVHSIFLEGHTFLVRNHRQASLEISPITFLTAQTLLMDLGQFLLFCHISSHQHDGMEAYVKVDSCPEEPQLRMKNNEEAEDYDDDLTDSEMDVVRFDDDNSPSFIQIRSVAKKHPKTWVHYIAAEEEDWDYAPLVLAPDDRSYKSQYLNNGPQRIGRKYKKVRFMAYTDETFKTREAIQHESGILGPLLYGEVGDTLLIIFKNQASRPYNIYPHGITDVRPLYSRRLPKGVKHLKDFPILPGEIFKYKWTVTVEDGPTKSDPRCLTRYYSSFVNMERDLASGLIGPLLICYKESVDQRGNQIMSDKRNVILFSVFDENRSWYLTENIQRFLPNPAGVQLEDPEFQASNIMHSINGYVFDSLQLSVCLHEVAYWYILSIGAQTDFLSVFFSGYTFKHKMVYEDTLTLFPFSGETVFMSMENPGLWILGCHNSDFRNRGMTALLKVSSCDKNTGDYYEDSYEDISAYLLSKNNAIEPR", "sequence (P00451 1668-2351 limits assumed)": "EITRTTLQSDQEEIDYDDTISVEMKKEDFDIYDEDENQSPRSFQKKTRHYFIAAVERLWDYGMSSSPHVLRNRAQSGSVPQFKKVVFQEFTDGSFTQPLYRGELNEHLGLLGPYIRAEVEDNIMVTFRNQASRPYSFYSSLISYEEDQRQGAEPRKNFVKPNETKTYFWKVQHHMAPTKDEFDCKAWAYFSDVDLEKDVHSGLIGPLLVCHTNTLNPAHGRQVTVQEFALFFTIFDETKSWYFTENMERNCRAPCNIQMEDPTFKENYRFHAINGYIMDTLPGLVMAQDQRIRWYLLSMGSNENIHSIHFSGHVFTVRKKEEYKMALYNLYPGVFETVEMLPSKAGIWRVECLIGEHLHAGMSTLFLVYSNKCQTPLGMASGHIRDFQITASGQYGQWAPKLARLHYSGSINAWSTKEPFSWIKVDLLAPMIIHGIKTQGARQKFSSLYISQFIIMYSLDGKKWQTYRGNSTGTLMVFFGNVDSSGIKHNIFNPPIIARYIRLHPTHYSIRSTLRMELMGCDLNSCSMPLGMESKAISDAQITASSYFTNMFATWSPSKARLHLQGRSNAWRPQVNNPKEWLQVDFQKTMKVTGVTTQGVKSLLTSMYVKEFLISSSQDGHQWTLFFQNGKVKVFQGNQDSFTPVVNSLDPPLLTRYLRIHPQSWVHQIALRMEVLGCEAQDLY", "assay": "Inhibition of human factor 8 binding to immobilized phospholipid by surface plasmon resonance assay"}, "Coagulation factor V [8]": {"target": "T1, Coagulation factor V", "assay": "Inhibition of factor 5a-mediated prothrombin activation in human plasma at 50 uM in presence of 40 mg/ml albumin", "format": "cell-free", "design": "scale not given: the % may be the effect or the level left"}}, "note": "The source made the active and inactive calls. The calls are words filed in the database; no cut-off is given here."}
{"compound": "CC1=NN(c2cccc(C(=O)O)c2)C(=O)/C1=C\\c1ccc(-c2ccc([N+](=O)[O-])cc2)o1", "values": [{"measurement": "inhibition", "setting": "Coagulation factor V [1]", "result": "> 99", "unit": "%"}, {"measurement": "Activity", "setting": "[2]", "result": "inactive"}, {"measurement": "IC50", "setting": "Coagulation factor V [3]", "result": 9.19, "unit": "µM"}, {"measurement": "Activity", "setting": "[4]", "result": "inactive"}, {"measurement": "Activity", "setting": "[5]", "result": "inactive"}, {"measurement": "IC50", "setting": "Coagulation factor V [6]", "result": 6.71, "unit": "µM"}, {"measurement": "IC50", "setting": "Coagulation factor V [7]", "result": 8.56, "unit": "µM"}]}
{"compound": "N=c1n(CCN2CCCCC2)c2ccccc2n1CC(O)COc1ccc(Cl)cc1Cl", "note": "(single isomer, unassigned)", "values": [{"measurement": "inhibition", "setting": "Coagulation factor V [1]", "result": "> 99", "unit": "%"}, {"measurement": "Activity", "setting": "[2]", "result": "inactive"}, {"measurement": "IC50", "setting": "Coagulation factor V [3]", "result": 32.4, "unit": "µM"}, {"measurement": "Activity", "setting": "[4]", "result": "inactive"}, {"measurement": "IC50", "setting": "Coagulation factor VIII", "result": 7.8, "unit": "µM"}, {"measurement": "IC50", "setting": "Coagulation factor V [6]", "result": 14, "unit": "µM"}, {"measurement": "IC50", "setting": "Coagulation factor V [7]", "result": 15.7, "unit": "µM"}]}
{"compound": "COc1cc([N+](=O)[O-])ccc1-c1ccc(/C=C2\\C(=O)NC(=O)N(c3ccc4c(c3)OCO4)C2=O)o1", "values": [{"measurement": "inhibition", "setting": "Coagulation factor V [1]", "result": "> 99", "unit": "%"}, {"measurement": "Activity", "setting": "[2]", "result": "inactive"}, {"measurement": "IC50", "setting": "Coagulation factor V [3]", "result": 62.9, "unit": "µM"}, {"measurement": "Activity", "setting": "[4]", "result": "inactive"}, {"measurement": "Activity", "setting": "[5]", "result": "inactive"}, {"measurement": "IC50", "setting": "Coagulation factor V [6]", "result": 5.53, "unit": "µM"}, {"measurement": "IC50", "setting": "Coagulation factor V [7]", "result": 4.8, "unit": "µM"}]}
{"compound": "CC1=NN(c2ccc(Br)cc2)C(=O)/C1=C/c1ccc(-c2cccc(C(=O)O)c2)o1", "values": [{"measurement": "inhibition", "setting": "Coagulation factor V [1]", "result": "> 99", "unit": "%"}, {"measurement": "Activity", "setting": "[2]", "result": "inactive"}, {"measurement": "IC50", "setting": "Coagulation factor V [3]", "result": 1.81, "unit": "µM"}, {"measurement": "Activity", "setting": "[5]", "result": "inactive"}]}
{"compound": "Cc1cc(-c2ccc(/C=C3/C(=O)NN(c4cccc(Cl)c4)C3=O)o2)c([N+](=O)[O-])cc1C", "values": [{"measurement": "inhibition", "setting": "Coagulation factor V [1]", "result": "> 99", "unit": "%"}, {"measurement": "Activity", "setting": "[2]", "result": "inactive"}, {"measurement": "IC50", "setting": "Coagulation factor V [3]", "result": 8.95, "unit": "µM"}, {"measurement": "Activity", "setting": "[4]", "result": "inactive"}, {"measurement": "Activity", "setting": "[5]", "result": "inactive"}, {"measurement": "IC50", "setting": "Coagulation factor V [6]", "result": 7.4, "unit": "µM"}, {"measurement": "IC50", "setting": "Coagulation factor V [7]", "result": 8.55, "unit": "µM"}]}
{"compound": "CCOc1cc(/C=C2/NC(=O)N(Cc3ccccc3F)C2=O)ccc1OCc1ccc(C(=O)O)cc1", "values": [{"measurement": "inhibition", "setting": "Coagulation factor V [1]", "result": "> 99", "unit": "%"}, {"measurement": "Activity", "setting": "[2]", "result": "inactive"}, {"measurement": "IC50", "setting": "Coagulation factor V [3]", "result": 18.6, "unit": "µM"}, {"measurement": "Activity", "setting": "[4]", "result": "inactive"}, {"measurement": "Activity", "setting": "Coagulation factor V [8]", "result": 25, "unit": "%"}, {"measurement": "Activity", "setting": "[5]", "result": "inactive"}, {"measurement": "IC50", "setting": "Coagulation factor V [6]", "result": 3.51, "unit": "µM"}, {"measurement": "IC50", "setting": "Coagulation factor V [7]", "result": 2.5, "unit": "µM"}]}
{"compound": "O=C1NC(=O)N(c2ccccc2F)C(=O)/C1=C\\c1cc(Cl)ccc1OCc1ccc([N+](=O)[O-])cc1", "values": [{"measurement": "inhibition", "setting": "Coagulation factor V [1]", "result": "> 99", "unit": "%"}, {"measurement": "Activity", "setting": "[2]", "result": "inactive"}, {"measurement": "IC50", "setting": "Coagulation factor V [3]", "result": 38, "unit": "µM"}, {"measurement": "Activity", "setting": "[4]", "result": "inactive"}, {"measurement": "IC50", "setting": "Coagulation factor VIII", "result": 8.9, "unit": "µM"}, {"measurement": "IC50", "setting": "Coagulation factor V [6]", "result": 21.9, "unit": "µM"}, {"measurement": "IC50", "setting": "Coagulation factor V [7]", "result": 14.1, "unit": "µM"}]}
{"compound": "O=C(COc1ccc(Cl)cc1Cl)Nc1ccc(C(=O)Nc2ccccc2C(=O)O)cc1", "values": [{"measurement": "inhibition", "setting": "Coagulation factor V [1]", "result": "> 99", "unit": "%"}, {"measurement": "Activity", "setting": "[2]", "result": "inactive"}, {"measurement": "IC50", "setting": "Coagulation factor V [3]", "result": 40.6, "unit": "µM"}, {"measurement": "Activity", "setting": "[4]", "result": "inactive"}, {"measurement": "Activity", "setting": "[5]", "result": "inactive"}, {"measurement": "IC50", "setting": "Coagulation factor V [6]", "result": 16.4, "unit": "µM"}, {"measurement": "IC50", "setting": "Coagulation factor V [7]", "result": 14.1, "unit": "µM"}]}
{"compound": "CC(C)NC[C@@H](O)Cn1c2c(c3ccccc31)CCc1c-2cnn1-c1ccccc1", "values": [{"measurement": "inhibition", "setting": "Coagulation factor V [1]", "result": "> 99", "unit": "%"}, {"measurement": "Activity", "setting": "[2]", "result": "inactive"}, {"measurement": "IC50", "setting": "Coagulation factor V [3]", "result": 3.8, "unit": "µM"}, {"measurement": "Activity", "setting": "[5]", "result": "inactive"}]}
